Data set [1] in a line: Antiproliferative against human NSC-24 cells at 300 uM after 24 hrs by WST-1 assay. To be noted: nsc-24, 24 h. It counts as cell-based. (In general: Tetrazolium assays rely on reduction of a dye to a coloured formazan, in cell work by metabolically active cells.)
A short description of data set [2]: (§1) Antiproliferative against human TG10 cells at 300 uM after 24 hrs by WST-1 assay. It counts as functional.
Data set [3] is described as follows: (§2) Antiproliferative against human TG1 cells at 30 to 300 uM after 24 hrs by WST-1 assay. It counts as functional.
For data set [4], the target named is RAC-alpha serine/threonine-protein kinase (Homo sapiens) (UniProt P31749). As to the kind of experiment: Inhibition of AKT phosphorylation in human NSC-24 cells at 300 uM after 30 mins by Western blot analysis. It counts as cell-based. On the technique in general: A western blot detects proteins with antibodies after separation by electrophoresis.
Sequence of RAC-alpha serine/threonine-protein kinase (Homo sapiens) (P31749 whole entry): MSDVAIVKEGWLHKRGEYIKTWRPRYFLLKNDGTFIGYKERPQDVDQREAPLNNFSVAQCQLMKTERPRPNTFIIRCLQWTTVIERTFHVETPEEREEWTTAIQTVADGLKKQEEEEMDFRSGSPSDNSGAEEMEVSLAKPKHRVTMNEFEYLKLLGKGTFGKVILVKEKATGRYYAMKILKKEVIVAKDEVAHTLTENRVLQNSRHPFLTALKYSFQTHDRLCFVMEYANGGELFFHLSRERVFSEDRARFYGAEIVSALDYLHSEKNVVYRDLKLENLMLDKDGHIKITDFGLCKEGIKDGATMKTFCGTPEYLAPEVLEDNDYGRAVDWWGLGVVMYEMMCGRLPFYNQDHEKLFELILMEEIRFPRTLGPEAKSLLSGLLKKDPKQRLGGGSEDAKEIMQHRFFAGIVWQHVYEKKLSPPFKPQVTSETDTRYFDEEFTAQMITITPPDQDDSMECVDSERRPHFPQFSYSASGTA
Data set [5] in a line: (§3) Antiproliferative against human TG1 cells at 300 uM after 24 hrs by WST-1 assay. It counts as functional.
Data set [6] concerns the target RAC-alpha serine/threonine-protein kinase (Homo sapiens) (UniProt P31749). As to the kind of experiment: Inhibition of AKT phosphorylation in human TG10 cells at 300 uM after 30 mins by Western blot analysis. It counts as cell-based.
Data set [7] shares this target. As to the kind of experiment: Inhibition of AKT phosphorylation in human TG1 cells at 300 uM after 30 mins by Western blot analysis. It counts as cell-based.
In data set [8] the test system is TG1. The description is as §2. It counts as functional.
Data set [9] in a line: Antiproliferative against human NSC-24 cells at 30 to 300 uM after 24 hrs by WST-1 assay. It counts as cell-based. The note with it: nsc-24, 24 h.
A short description of data set [10]: Antiproliferative against human TG10 cells at 30 to 300 uM after 24 hrs by WST-1 assay. It counts as functional.
In data set [11] the test system is TG10. The data set is described as §1. It counts as functional.
For data set [12], the system named is TG1. The data set is described as §3. It counts as functional.
Data set [13] can be described thus: Antiproliferative against human TG1 cells after 24 hrs by WST-1 assay. It counts as functional.
The nature of data set [14]: Antiproliferative against human TG10 cells after 24 hrs by WST-1 assay. It counts as functional.

These results are taken from ChEMBL document CHEMBL3217608, “Alkaloids from Rutaceae: activities of canthin-6-one alkaloids and synthetic analogues on glioblastoma stems cells” (Medchemcomm, 2012).

Active and inactive are the calls of the source. No cut-off for these calls is given here. Bounds are passed on as bounds.

As for `O=c1ccc2nccc3c4cc(OCc5ccccc5)ccc4n1c23`, the Activity result in [1] is reported as “Non-toxic”; in data set [2], 85%; in [3] it was 40%; in [5], 40%. Also, the inhibition result in data set [4] is “inactive”. For the same compound, the inhibition result in data set [6] and in [7] was “Active” in each case.
Consider `COc1ccc2c(c1)c1ccnc3ccc(=O)n2c31`, for which the result in [8] was inactive.
On the same count and under the same terms, the result for `Nc1cc(=O)n2c3ccccc3c3ccnc1c32` reads “inactive”.
Still for that read-out and setting: in the case of `O=C1CCc2nccc3c4ccccc4n1c23` it was “inactive”; in that of `O=c1c2ccccc2c2nccc3c4ccccc4n1c32`, “inactive”.
Consider `O=c1ccc2c3c(cc[n+]2[O-])c2ccccc2n13`, for which the outcome in data set [8] was inactive.
As for `COc1cc2nccc3c4ccccc4n(c1=O)c23` [5-METHOXYCANTHINONE], the Activity in data set [3] is reported as 40%; in [9] it was 60%; in data set [10] it was 35%. For the same compound, the inhibition entry in data set [4], in data set [6] and in data set [7] was “Active” in each case.
For `O=c1ccc2nccc3c4ccccc4n1c23` [CANTHIN-6-ONE], the outcome in data set [11] and in data set [12] was Active. Also, the figures for the Activity in data set [3], in [9] and in [10] were 40%, 60% and 35%, respectively. In addition, the inhibition entry in data set [6] and in data set [7] was “Active” throughout.
Consider `Cn1nnc2c(C(N)=O)ncn2c1=O` [TEMOZOLOMIDE], for which the Activity in [13] and in [14] was more than 80% each time.
